Assay results taken from patent US11299478B2, “2-cyanopyrimidin-4-yl carbamate or urea derivative or salt thereof, and pharmaceutical composition including same” (HANLIM PHARMACEUTICAL CO., LTD., priority 2018, dated 2022).

Target: T1, cathepsin K (Homo sapiens, UniProt P43235)
T1 sequence (P43235 115-329): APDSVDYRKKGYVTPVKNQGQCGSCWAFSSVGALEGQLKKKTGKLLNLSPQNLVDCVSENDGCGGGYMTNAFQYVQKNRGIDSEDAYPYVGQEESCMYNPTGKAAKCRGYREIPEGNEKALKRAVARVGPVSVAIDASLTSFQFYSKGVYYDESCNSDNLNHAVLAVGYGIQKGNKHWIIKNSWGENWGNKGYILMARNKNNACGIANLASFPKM
Assay: Inhibitory activity assay against cathepsin K (enzyme assay)
Type: biochemical
Conditions: Z-Phe-Arg-AMC 10 μM, enzyme 1 nM, pH 5.5, 30 minutes
Procedure: In order to measure the enzyme activity of cathepsin K, a buffer solution (pH 5.5) consisting of 50 mM 2-(N-morpholino)ethanesulfonic acid (MES), 2 mM dithiothreitol (DTT), 2.5 mM ethylenediaminetetraacetic acid (EDTA), 0.01% Triton X-100, and 10% dimethyl sulfoxide (DMSO) was prepared. The substrate, the test material, and the enzyme were mixed in the buffer solution in a predetermined concentration. The Z-Phe-Arg-AMC substrate was used in the final concentration of 10 μM. The test material was used in the final concentrations of 10.0 μM, 3.33 μM, 1.11 μM, 0.370 μM, 0.123 μM, 0.0412 μM, 0.0137 μM, 0.00457 μM, 0.00152 μM, and 0.000508 μM, respectively. The cathepsin K enzyme was used in the final concentration of 1 nM. The final volume of the enzyme reaction solution was 10 μL. After reacting the mixture of substrate, test material, and enzyme for 30 minutes, the enzyme activity was measured with the Synergy Neo (Biotek) microplate reader at an absorption wavelength of 355 nm and an emission wavelength of 460 nm. IC50 values were determined using 4-parameter logistic curve fit program of GraphPad Prism.

SMILES | IC50 [nM]
N#Cc1nccc(C2(NC(=O)Nc3ccc(S(N)(=O)=O)cc3)CCCC2)n1 [Example 72, 4-(3-(1-(2-cyanopyrimidin-4-yl)cyclopentyl)ureido)benzenesulfonamide] | 331
Cn1ncc2ccc(-c3ccc(COC(=O)NC4(c5ccnc(C#N)n5)CCCC4)cc3)cc21 [Example 34, 4-(1-methyl-1H-indazol-6-yl)benzyl (1-(2-cyanopyrimidin-4-yl)cyclopentyl)carbamate] | 2040
N#Cc1nccc(C2(NC(=O)OCc3cccc(-c4ccc(N5CCOCC5)cc4)c3)CCCC2)n1 [Example 32, (4′-morpholino-[1,1′-biphenyl]-3-yl)methyl (1-(2-cyanopyrimidin-4-yl)cyclopentyl)carbamate] | ≥ 10000
Cc1ccccc1NC(=O)NC1(c2ccnc(C#N)n2)CCCC1 [Example 37, 1-(1-(2-cyanopyrimidin-4-yl)cyclopentyl)-3-(ortho-tolyl)urea] | 113
Cc1cccc(COC(=O)NC2(c3ccnc(C#N)n3)CCCC2)c1 [Example 5, 3-methylbenzyl (1-(2-cyanopyrimidin-4-yl)cyclopentyl)carbamate] | 161
COc1cccc(NC(=O)NC2(c3ccnc(C#N)n3)CCCC2)c1 [Example 80, 1-(1-(2-cyanopyrimidin-4-yl)cyclopentyl)-3-(3-methoxyphenyl)urea] | 157
N#Cc1cccc(COC(=O)NC2(c3ccnc(C#N)n3)CCCC2)c1 [Example 9, 3-cyanobenzyl (1-(2-cyanopyrimidin-4-yl)cyclopentyl)carbamate] | 490
Cn1ncc2cc(NC(=O)NC3(c4ccnc(C#N)n4)CCCC3)ccc21 [Example 76, 1-(1-(2-cyanopyrimidin-4-yl)cyclopentyl)-3-(1-methyl-1H-indazol-5-yl)urea] | 573
N#Cc1nccc(C2(NC(=O)Nc3cccc(O)c3)CCCC2)n1 [Example 71, 1-(1-(2-cyanopyrimidin-4-yl)cyclopentyl)-3-(3-hydroxyphenyl)urea] | 547
COCCc1ccc(OCc2ccc(-c3ccc(NC(=O)NC4(c5ccnc(C#N)n5)CCCCC4)cc3)cc2)cc1 [Example 152, 1-(1-(2-cyanopyrimidin-4-yl)cyclohexyl)-3-(4′-((4-(2-methoxyethyl)phenoxy)methyl)-[1,1′-biphenyl]-4-yl)urea] | 2400
COc1cccc(COC(=O)NC2(c3ccnc(C#N)n3)CCCC2)c1 [Example 6, 3-methoxybenzyl (1-(2-cyanopyrimidin-4-yl)cyclopentyl)carbamate] | 179

Next, values leading:

IC50 [nM] | SMILES
3430 | N#Cc1nccc(C2(NC(=O)NCCc3ccc(S(N)(=O)=O)cc3)CCCC2)n1 [Example 45, 4-(2-(3-(1-(2-cyanopyrimidin-4-yl)cyclopentyl)ureido)ethyl)benzenesulfonamide]
174 | N#Cc1nccc(C2(NC(=O)Nc3ccccc3C(F)(F)F)CCCC2)n1 [Example 59, 1-(1-(2-cyanopyrimidin-4-yl)cyclopentyl)-3-(2-(trifluoromethyl)phenyl)urea]
105 | Cc1cccc(CNC(=O)NC2(c3ccnc(C#N)n3)CCCC2)c1 [Example 47, 1-(1-(2-cyanopyrimidin-4-yl)cyclopentyl)-3-(3-methylbenzyl)urea]
590 | COc1ccc(CNC(=O)NC2(c3ccnc(C#N)n3)CCCC2)cc1OC [Example 49, 1-(1-(2-cyanopyrimidin-4-yl)cyclopentyl)-3-(3,4-dimethoxybenzyl)urea]
116 | N#Cc1nccc(C2(NC(=O)NCc3ccc(C(F)(F)F)cc3)CCCC2)n1 [Example 58, 1-(1-(2-cyanopyrimidin-4-yl)cyclopentyl)-3-(4-(trifluoromethyl)benzyl)urea]
162 | COc1ccc(NC(=O)NC2(c3ccnc(C#N)n3)CCCC2)cc1 [Example 81, 1-(1-(2-cyanopyrimidin-4-yl)cyclopentyl)-3-(4-methoxyphenyl)urea]
219 | COc1ccccc1CNC(=O)NC1(c2ccnc(C#N)n2)CCCC1 [Example 68, 1-(1-(2-cyanopyrimidin-4-yl)cyclopentyl)-3-(2-methoxybenzyl)urea]
